System: U-251 MG cell line
Experiment: % cell proliferation of U-251 MG cell line after 72 h with non-encapsulated and encapsulated 3PO
Format: cell-based
Conditions: U-251 cells, inhibitor concentration 5 μM
Description: FIG. 5. % Cell proliferation of the U-251 MG cell line, after 72 h, using various concentrations of the non-encapsulated and encapsulated (UHT-CMNPs) model drug 3PO.
The ability of the F-CMNPs to act as drug delivery systems was also studied. […] As a proof of concept, we loaded the glucose inhibitor (2E)-3-(3-Pyridinyl)-1-(4-pyridinyl)-2-propen-1-one (3PO) in the F-CMNPs.

O=C(/C=C/c1cccnc1)c1ccncc1 [3PO, (2E)-3-(3-Pyridinyl)-1-(4-pyridinyl)-2-propen-1-one]
reduction of cells' proliferation: not affecting

Reference: US20230364019A1, “Multi-targeting cell-derived nanoparticles as a versatile theranostic” (Fondazione Istituto Italiano di Tecnologia, priority 2020, published 2023)
